Entries after “also recorded” stand apart in the source; their conditions may differ.
Key:
[1] = system: peritoneal exudated macrophages (PEMs); assay: ELISA of IL-10 and TGFβ cytokines in peritoneal exudate macrophages treated with HDAC11 inhibitor; format: cell-based; conditions: dose-dependent
Description: Upon treatment with M-CSF, bone marrow-derived monocytes (BMDM) differentiate into naïve (M0) macrophages. In the case of peritoneal exudate macrophages (PEMs), naïve M0 macrophages are isolated from the peritoneal cavity. These M0 macrophages are pre-treated with HDAC11 inhibitor followed by polarization to M2 macrophages with IL4 and IL13 cytokines or other cytokine mix including but not limited to IL10 and TGF beta. […] A chromatin immunoprecipitation assay further confirmed that HDAC11 binded preferentially to the distal promoter region of IL10, and negatively regulated its gene expression (FIG. 1B). […] This confirmed that the HDAC11 inhibitor was highly specific, and that it could recapitulate the effect of HDAC11 genetic knock down.
Therefore, HDAC11 inhibitor treated M2 macrophages as a cell therapy and or topical HDAC11 inhibitor application are excellent to treat inflammatory diseases.

[2] = system: murine bone marrow derived macrophages (BMDMs); assay: QRT-PCR of M2 markers in bone marrow derived macrophages pre-treated with HDAC11 inhibitor and polarized to M2; format: cell-based; conditions: inhibitor 5 μM pre-treatment overnight prior to M2 polarization
Procedure: Upon treatment with M-CSF, bone marrow-derived monocytes (BMDM) differentiate into naïve (M0) macrophages. In the case of peritoneal exudate macrophages (PEMs), naïve M0 macrophages are isolated from the peritoneal cavity. These M0 macrophages are pre-treated with HDAC11 inhibitor followed by polarization to M2 macrophages with IL4 and IL13 cytokines or other cytokine mix including but not limited to IL10 and TGF beta.
Next, HDAC11 inhibitors were evaluated for their ability to modulate the function of macrophages. […] These commercially available HDAC11 inhibitors were tested on macrophages in-vitro to identify their macrophage modulatory properties. Next, BMDMs were isolated and polarized towards M2 phenotype with HDAC11 inhibitor pre-treatment overnight.

HDAC11 = target: T1, HDAC11 (Homo sapiens, UniProt Q96DB2); conditions: literature statement; cited from earlier work
T1 sequence (Q96DB2 1-347): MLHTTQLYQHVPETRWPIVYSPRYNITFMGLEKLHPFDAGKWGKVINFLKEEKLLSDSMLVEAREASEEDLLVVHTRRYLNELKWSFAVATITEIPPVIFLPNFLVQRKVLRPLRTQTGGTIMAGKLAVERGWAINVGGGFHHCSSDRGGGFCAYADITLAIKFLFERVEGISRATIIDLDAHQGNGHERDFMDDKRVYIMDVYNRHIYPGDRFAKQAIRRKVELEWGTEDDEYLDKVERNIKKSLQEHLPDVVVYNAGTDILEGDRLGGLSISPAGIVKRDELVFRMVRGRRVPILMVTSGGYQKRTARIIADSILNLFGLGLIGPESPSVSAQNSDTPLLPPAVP

Compound	expression of IL-10 cytokine [1]	expression of TGFβ cytokine [1]	Arg1 expression [2]	Fizz1 expression [2]	Mrc1 expression [2]	inhibition of HDAC11 (demyristoylation activity; potency and selectivity) (HDAC11)
COc1ccccc1NC(=O)NCc1ccc(C(=O)NO)cc1 [elevenostat]	increased the expression of IL-10 and TGFβ cytokines in a dose-dependent manner; also recorded: dose dependent increase	increased the expression of IL-10 and TGFβ cytokines in a dose-dependent manner; also recorded: dose dependent increase	–	–	–	–
CCCCCCCCCCCCCCCCNNC(=O)c1cccs1 [SIS17]	–	–	increased the expression of Arg1 and Mrc1	further enhanced the expression of Fizz1	increased the expression of Arg1 and Mrc1	inhibit the demyristoylation activity of HDAC11 without inhibiting other HDACs
CC1(C)c2cccc(C(=O)NO)c2CN1c1cnc(C(F)(F)F)cn1 [FT895]	–	–	did not affect	further enhanced the expression of Fizz1	did not affect	–
